Results from PubChem BioAssay AID330 (DTP/NCI, 2004).
“And” between values parts separate entries of the source, which are not always exact repeats. Identical values can stand only once. Inconclusive results and toxic doses are left out. The calls were made as follows: active = survival T/C of 150% or more; inactive = T/C below 125% in these data.

Tested on: P388 leukemia ip, CD2F1 mice, survival T/C
Test: NCI In Vivo Anticancer Drug Screen. Data for tumor model P388 Leukemia (intraperitoneal) in CD2F1 (CDF1) mice
Conditions: endpoint: median survival time, higher = longer survival
In short: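 Mice carrying the transplanted tumor received test compound or vehicle. Survival was recorded in each group, and the value is the treated-group measurement divided by that of the vehicle-treated control group.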

[1] = dose: 60.0 mg/kg/injection, schedule: Q01DX005 (ip), vehicle: saline
[2] = dose: 50.0 mg/kg/injection, schedule: Q01DX009 (ip), vehicle: saline
[3] = dose: 100.0 mg/kg/injection, schedule: Q01DX009 (ip), vehicle: saline
[4] = dose: 200.0 mg/kg/injection, schedule: Q01DX009 (ip), vehicle: saline
[5] = dose: 12.5 mg/kg/injection, schedule: Q01DX009 (ip), vehicle: water
[6] = dose: 50.0 mg/kg/injection, schedule: Q01DX009 (ip), vehicle: water
[7] = dose: 50.0 mg/kg/injection, schedule: Q01DX005 (ip), vehicle: saline with Tween-80
[8] = dose: 25.0 mg/kg/injection, schedule: Q01DX009 (ip), vehicle: saline with Tween-80
[9] = dose: 50.0 mg/kg/injection, schedule: Q01DX009 (ip), vehicle: saline with Tween-80
[10] = dose: 60.0 mg/kg/injection, schedule: Q01DX005 (ip), vehicle: saline with Tween-80
[11] = dose: 120.0 mg/kg/injection, schedule: Q01DX005 (ip), vehicle: saline with Tween-80
[12] = dose: 240.0 mg/kg/injection, schedule: Q01DX005 (ip), vehicle: saline with Tween-80
[13] = dose: 50.0 mg/kg/injection, schedule: Q01DX005 (ip), vehicle: Klucel (hydroxypropylcellulose) (HPC)
[14] = dose: 100.0 mg/kg/injection, schedule: Q01DX005 (ip), vehicle: Klucel (hydroxypropylcellulose) (HPC)
[15] = dose: 6.25 mg/kg/injection, schedule: Q01DX009 (ip), vehicle: saline
[16] = dose: 12.5 mg/kg/injection, schedule: Q01DX009 (ip), vehicle: saline
[17] = dose: 25.0 mg/kg/injection, schedule: Q01DX009 (ip), vehicle: saline

Measured: T/C

CCN=C1C=C/C(=C(/c2ccc(NCC)c(C)c2)c2cc(O)c(S(=O)(=O)O)cc2S(=O)(=O)O)C=C1C
inactive: [1] 107 % of control | dose: 120.0 mg/kg/injection, schedule: Q01DX005 (ip), vehicle: saline 106 % of control | dose: 240.0 mg/kg/injection, schedule: Q01DX005 (ip), vehicle: saline 102 % of control

CC(C)C(N)CO (centres undefined)
inactive: [2] 107 % of control | [3] 106 % of control | [4] 100 % of control

C=CCC(=C)C(=O)OC
inactive: [5] 103 % of control | dose: 25.0 mg/kg/injection, schedule: Q01DX009 (ip), vehicle: water 104 % of control | [6] 102 % of control | dose: 100.0 mg/kg/injection, schedule: Q01DX009 (ip), vehicle: water 102 % of control | dose: 200.0 mg/kg/injection, schedule: Q01DX009 (ip), vehicle: water 103 % of control

CC(N)C(=O)O (centres undefined)
inactive: [2] 115 % of control | [3] 105 % of control | [4] 106 % of control

NC(=S)N/N=C/c1cn(-c2ccc(N)cc2)cn1
inactive: dose: 25.0 mg/kg/injection, schedule: Q04DX003 (ip), vehicle: Klucel (hydroxypropylcellulose) (HPC) 100 % of control | dose: 50.0 mg/kg/injection, schedule: Q04DX003 (ip), vehicle: Klucel (hydroxypropylcellulose) (HPC) 91 % of control | dose: 100.0 mg/kg/injection, schedule: Q04DX003 (ip), vehicle: Klucel (hydroxypropylcellulose) (HPC) 100 % of control

CCOC(=O)C1CCCCC12Nc1cccc3cccc(c13)N2 (centres undefined)
inactive: [7] 95 % of control | dose: 100.0 mg/kg/injection, schedule: Q01DX005 (ip), vehicle: saline with Tween-80 105 % of control | dose: 200.0 mg/kg/injection, schedule: Q01DX005 (ip), vehicle: saline with Tween-80 113 % of control

Cc1cccc(/C=N/Nc2cc(C)c3ccccc3n2)n1
inactive: dose: 12.5 mg/kg/injection, schedule: Q01DX005 (ip), vehicle: saline with Tween-80 100 % of control | dose: 25.0 mg/kg/injection, schedule: Q01DX005 (ip), vehicle: saline with Tween-80 93 % of control | [7] 101 % of control and 104 % of control

[O-][n+]1c(CCl)nc2ccccc2c1-c1ccccc1F
inactive: dose: 12.5 mg/kg/injection, schedule: Q01DX009 (ip), vehicle: saline with Tween-80 103 % of control | [8] 103 % of control | [9] 103 % of control

COC(=O)C1=NOC(COc2ccc([N+](=O)[O-])cc2)C1 (centres undefined)
inactive: [10] 100 % of control | [11] 93 % of control | [12] 86 % of control

CCCCCCCCCCCCCCC(C(=O)[O-])[n+]1ccccc1 (centres undefined)
inactive: dose: 15.0 mg/kg/injection, schedule: Q01DX005 (ip), vehicle: saline 114 % of control | dose: 30.0 mg/kg/injection, schedule: Q01DX005 (ip), vehicle: saline 96 % of control | [1] 110 % of control

O/N=C\c1ccccc1P(c1ccccc1/C=N\O)c1ccccc1/C=N\O
inactive: dose: 100.0 mg/kg/injection, schedule: Q01DX001 (ip), vehicle: saline with Tween-80 87 % of control | dose: 200.0 mg/kg/injection, schedule: Q01DX001 (ip), vehicle: saline with Tween-80 89 % of control

CSC1C(=O)N2CCCc3cccc1c32 (centres undefined)
inactive: [10] 105 % of control | [11] 96 % of control | [12] 96 % of control

Cc1cnc(NCCCCNc2ncc(C)c(-c3ccccc3O)n2)nc1-c1ccccc1O
inactive: [13] 101 % of control | [14] 101 % of control | dose: 200.0 mg/kg/injection, schedule: Q01DX005 (ip), vehicle: Klucel (hydroxypropylcellulose) (HPC) 89 % of control

C=C(C)C(=O)OC1C2C(=C)C(=O)OC2CC(C)C2OC2C(=O)C(C)(O)C1OC(=O)C(=C)C (centres undefined)
inactive: dose: 12.5 mg/kg/injection, schedule: Q04DX002 (ip), vehicle: Klucel (hydroxypropylcellulose) (HPC) 110 % of control | dose: 25.0 mg/kg/injection, schedule: Q04DX002 (ip), vehicle: Klucel (hydroxypropylcellulose) (HPC) 110 % of control | dose: 50.0 mg/kg/injection, schedule: Q04DX002 (ip), vehicle: Klucel (hydroxypropylcellulose) (HPC) 107 % of control

COC(=Nc1ccccc1)SSC(C)C
inactive: [8] 115 % of control | [9] 115 % of control

CC(C)(CO)[C@@H](O)C(=O)NCCC(=O)O
inactive: [2] 108 % of control | [3] 113 % of control | [4] 106 % of control

C=C1C(=O)O[C@H]2/C=C(/C)C3=CC(=O)[C@@](C)(C[C@@H](OC(=O)/C(C)=C\C)C12)O3 (some centres undefined)
inactive: dose: 1.56 mg/kg/injection, schedule: Q01DX005 (ip), vehicle: Klucel (hydroxypropylcellulose) (HPC) 102 % of control | dose: 3.12 mg/kg/injection, schedule: Q01DX005 (ip), vehicle: Klucel (hydroxypropylcellulose) (HPC) 105 % of control | dose: 6.25 mg/kg/injection, schedule: Q01DX005 (ip), vehicle: Klucel (hydroxypropylcellulose) (HPC) 105 % of control | dose: 12.5 mg/kg/injection, schedule: Q01DX005 (ip), vehicle: Klucel (hydroxypropylcellulose) (HPC) 89 % of control and 96 % of control

Cc1ccc2c(c1)C(O)(CC(=O)c1ccccn1)C(=O)N2 (centres undefined)
inactive: dose: 60.0 mg/kg/injection, schedule: Q01DX005 (ip), vehicle: Klucel (hydroxypropylcellulose) (HPC) 104 % of control | dose: 120.0 mg/kg/injection, schedule: Q01DX005 (ip), vehicle: Klucel (hydroxypropylcellulose) (HPC) 97 % of control | dose: 240.0 mg/kg/injection, schedule: Q01DX005 (ip), vehicle: Klucel (hydroxypropylcellulose) (HPC) 104 % of control

CCc1nnc2c(C)c(C)nc(C)n12
inactive: dose: 100.0 mg/kg/injection, schedule: Q04DX003 (ip), vehicle: saline with Tween-80 94 % of control | dose: 200.0 mg/kg/injection, schedule: Q04DX003 (ip), vehicle: saline with Tween-80 100 % of control

N=C(N)c1ccc(NC(=S)Nc2ccc(C(=N)N)cc2)cc1
inactive: [15] 101 % of control | [16] 99 % of control | [17] 99 % of control

O=C(Nc1ccc(C(=O)O)cc1)Nc1ccc(C(=O)O)cc1
inactive: dose: 100.0 mg/kg/injection, schedule: Q04DX002 (ip), vehicle: Klucel (hydroxypropylcellulose) (HPC) 99 % of control | dose: 200.0 mg/kg/injection, schedule: Q04DX002 (ip), vehicle: Klucel (hydroxypropylcellulose) (HPC) 109 % of control

Cc1nc([N+](=O)[O-])c(Sc2nncc(-c3ccccc3)n2)n1C
inactive: [13] 111 % of control | [14] 104 % of control

CC(=O)c1cc(Cl)ccc1OCC(O)CNc1ccccc1C(=O)c1ccccc1 (centres undefined)
inactive: [10] 103 % of control | [11] 87 % of control | [12] 87 % of control

COC1=CC2CC(C#N)C2(OC)C=C1 (centres undefined)
inactive: [10] 97 % of control | [11] 99 % of control | [12] 98 % of control

Cc1ccc(S(=O)(=O)c2cnc(N3CCN(C)CC3)nc2N)cc1
inactive: dose: 100.0 mg/kg/injection, schedule: Q04DX002 (ip), vehicle: saline 100 % of control | dose: 200.0 mg/kg/injection, schedule: Q04DX002 (ip), vehicle: saline 100 % of control | dose: 400.0 mg/kg/injection, schedule: Q04DX002 (ip), vehicle: saline 93 % of control

O=C(Nc1ccccc1F)OCCCl
inactive: [10] 99 % of control | [11] 101 % of control | [12] 93 % of control

COc1ccc2c(c1)CN1C(CCC3c4ccccc4NC31)C2 (centres undefined)
inactive: [10] 99 % of control | [11] 95 % of control | [12] 95 % of control

OC1CCOC1 (centres undefined)
inactive: [15] 95 % of control | [16] 97 % of control | [17] 100 % of control | [2] 101 % of control | [3] 101 % of control | [4] 98 % of control | dose: 400.0 mg/kg/injection, schedule: Q01DX009 (ip), vehicle: saline 94 % of control | dose: 800.0 mg/kg/injection, schedule: Q01DX009 (ip), vehicle: saline 96 % of control

Cc1cc(C)nc(NN=O)c1
inactive: dose: 3.12 mg/kg/injection, schedule: Q01DX009 (ip), vehicle: water 104 % of control and 112 % of control | dose: 6.25 mg/kg/injection, schedule: Q01DX009 (ip), vehicle: water 121 % of control | [5] 121 % of control | [6] 95 % of control

NNc1ccc2cccc([N+](=O)[O-])c2n1
inactive: dose: 25.0 mg/kg/injection, schedule: Q01DX009 (ip), vehicle: other 106 % of control | dose: 50.0 mg/kg/injection, schedule: Q01DX009 (ip), vehicle: other 100 % of control | dose: 100.0 mg/kg/injection, schedule: Q01DX009 (ip), vehicle: other 100 % of control
